Consider 34 substances from patent US7803930B2, “Antisense modulation of apolipoprotein B-expression” (Isis Pharmaceuticals, Inc., priority 2002, dated 2010).

The data set concerns human apolipoprotein B mRNA. The experiment in a line: Inhibition of human apolipoprotein B mRNA levels in HepG2 cells, quantitative real-time PCR. It is filed as cell-based. To be noted: HepG2 cells; human apolipoprotein B mRNA; oligonucleotides targeting genomic sequence SEQ ID NO 334; averages from two experiments. In outline:
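Apolipoprotein B transcript was quantified by one-step TaqMan RT-PCR, normalized to GAPDH or RiboGreen RNA, and expressed as percent inhibition against an untreated-sample standard curve. HepG2 cells were harvested 16-24 h after oligonucleotide exposure, which was delivered with 3.75 μg/mL Lipofectin over 4-7 h at 80% confluency.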

In the oligonucleotide strings, read from the 5' end, every base follows the letter of its sugar. An asterisk marks phosphorothioate; unmarked linkages are phosphodiester. Other units and linkages are bracketed, terminal groups are in braces. A string of capitals states the bases alone. e = 2'-O-(2-methoxyethyl) (MOE); [5mC] = 5-methylcytosine; d = 2'-deoxy (DNA)

With “301176 (antisense eT*e[5mC]*eT*eG*eG*dA*dG*dG*d[5mC]*dT*d[5mC]*dA*dG*dA*dA*eA*e[5mC]*eA*eT*eG) [compound 301176]”, the “% INHIB” value was 57%.
On to “301177 (antisense eT*eG*eA*eA*eG*dA*d[5mC]*dA*dG*dG*dG*dA*dG*d[5mC]*d[5mC]*eA*e[5mC]*e[5mC]*eT*eA) [compound 301177]”, for which the “% INHIB” value is 40%.
“301178 (antisense eA*eG*eG*eA*eT*dT*d[5mC]*d[5mC]*d[5mC]*dA*dA*dG*dA*d[5mC]*dT*eT*eT*eG*eG*eA) [compound 301178]”: the “% INHIB” value is given as 38%.
With “301179 (antisense e[5mC]*eA*eG*e[5mC]*eT*d[5mC]*dT*dA*dA*dT*d[5mC]*dT*dA*dA*dA*eG*eA*e[5mC]*eA*eT) [compound 301179]”, the “% INHIB” value is 22%.
On to “301180 (antisense eG*eA*eA*eT*eA*d[5mC]*dT*d[5mC]*dA*d[5mC]*d[5mC]*dT*dT*d[5mC]*dT*eG*e[5mC]*eT*eT*eG) [compound 301180]”, for which the “% INHIB” value was 6%.
Take “301181 (antisense eA*eT*e[5mC]*eT*e[5mC]*dT*d[5mC]*dT*dG*dT*d[5mC]*d[5mC]*dT*d[5mC]*dA*eT*e[5mC]*eT*eT*e[5mC]) [compound 301181]”: the “% INHIB” value came to 28%.
With “301182 (antisense e[5mC]*e[5mC]*eA*eA*e[5mC]*dT*d[5mC]*d[5mC]*d[5mC]*d[5mC]*d[5mC]*dT*dT*dT*d[5mC]*eT*eT*eT*eG*eT) [compound 301182]”, the “% INHIB” value was found to be 37%.
Turning to “301183 (antisense eT*e[5mC]*eT*eG*eG*dG*d[5mC]*d[5mC]*dA*dG*dG*dA*dA*dG*dA*e[5mC]*eA*e[5mC]*eG*eA) [compound 301183]”, the “% INHIB” value was found to be 68%.
To “301184 (antisense eT*eA*eT*eT*eG*dT*dG*dT*dG*d[5mC]*dT*dG*dG*dG*d[5mC]*eA*e[5mC]*eT*eG*e[5mC]) [compound 301184]” belongs 52%; to “301185 (antisense eT*eG*e[5mC]*eT*eT*d[5mC]*dG*d[5mC]*dA*d[5mC]*d[5mC]*dT*dG*dG*dA*e[5mC]*eG*eA*eG*eT) [compound 301185]”, 51%.
To “301186 (antisense e[5mC]*e[5mC]*eT*eT*e[5mC]*dT*dT*dT*dA*d[5mC]*d[5mC]*dT*dT*dA*dG*eG*eT*eG*eG*e[5mC]) [compound 301186]” belongs 37%; to “301187 (antisense eG*e[5mC]*eT*e[5mC]*eT*d[5mC]*dT*d[5mC]*dT*dG*d[5mC]*d[5mC]*dA*d[5mC]*dT*e[5mC]*eT*eG*eA*eT) [compound 301187]”, 47%.
To “301188 (antisense eA*eA*e[5mC]*eT*eT*d[5mC]*dT*dA*dA*dA*dG*d[5mC]*d[5mC]*dA*dA*e[5mC]*eA*eT*eT*e[5mC]) [compound 301188]” belongs 27%; to “301189 (antisense eT*eG*eT*eG*eT*d[5mC]*dA*d[5mC]*dA*dA*d[5mC]*dT*dA*dT*dG*eG*eT*eA*eA*eA) [compound 301189]”, 63%.
Turning to “301190 (antisense eA*eG*eA*e[5mC]*eA*d[5mC]*dA*dT*dA*d[5mC]*d[5mC]*dA*dT*dA*dA*eT*eG*e[5mC]*e[5mC]*eA) [compound 301190]”, the “% INHIB” value was 22%.
On to “301191 (antisense eT*eT*e[5mC]*eT*e[5mC]*dT*dT*d[5mC]*dA*dT*d[5mC]*dT*dG*dA*dA*eA*eA*eT*eA*e[5mC]) [compound 301191]”, for which the “% INHIB” value was determined as 21%.
With “301192 (antisense eT*eG*eA*eG*eG*dA*dT*dG*dT*dA*dA*dT*dT*dA*dG*e[5mC]*eA*e[5mC]*eT*eT) [compound 301192]” the figure was 27%; with “301193 (antisense eA*eG*e[5mC]*eT*e[5mC]*dA*dT*dT*dG*d[5mC]*d[5mC]*dT*dA*d[5mC]*dA*eA*eA*eA*eT*eG) [compound 301193]”, 31%; with “301194 (antisense eG*eT*eT*e[5mC]*eT*d[5mC]*dA*dT*dG*dT*dT*dT*dA*d[5mC]*dT*eA*eA*eT*eG*e[5mC]) [compound 301194]”, 40%.
With “301195 (antisense eG*eA*eA*eT*eT*dG*dA*dG*dA*d[5mC]*dA*dA*d[5mC]*dT*dT*eG*eA*eT*eT*eT) [compound 301195]” the figure was 26%.
As for “301196 (antisense e[5mC]*e[5mC]*eG*eG*e[5mC]*d[5mC]*dA*dT*d[5mC]*dG*d[5mC]*dT*dG*dA*dA*eA*eT*eG*eA*eA) [compound 301196]”, the “% INHIB” value stood at 54%.
With “301197 (antisense e[5mC]*eA*eT*eA*eG*d[5mC]*dT*d[5mC]*dA*d[5mC]*d[5mC]*dT*dT*dG*d[5mC]*eA*e[5mC]*eA*eT*eT) [compound 301197]” the figure was 28%; with “301198 (antisense e[5mC]*eG*eG*eT*eG*d[5mC]*dA*d[5mC]*d[5mC]*d[5mC]*dT*dT*dT*dA*d[5mC]*e[5mC]*eT*eG*eA*eG) [compound 301198]”, 28%; with “301199 (antisense eT*e[5mC]*eT*e[5mC]*e[5mC]*dA*dG*dA*dT*d[5mC]*d[5mC]*dT*dA*dA*d[5mC]*eA*eT*eA*eA*eA) [compound 301199]”, 19%.
As for “301200 (antisense eT*eT*eG*eA*eA*dT*dG*dA*d[5mC]*dA*d[5mC]*dT*dA*dG*dA*eT*eT*eT*eT*e[5mC]) [compound 301200]”, the “% INHIB” value is given as 37%.
Regarding “301201 (antisense eA*eA*eA*eA*eT*d[5mC]*d[5mC]*dA*dT*dT*dT*dT*d[5mC]*dT*dT*eT*eA*eA*eA*eG) [compound 301201]”, the “% INHIB” value came out at 12%.
In the case of “301202 (antisense e[5mC]*eA*eG*e[5mC]*eT*d[5mC]*dA*d[5mC]*dA*d[5mC]*dT*dT*dA*dT*dT*eT*eT*eA*eA*eA) [compound 301202]”, the “% INHIB” value stood at 7%.
In the case of “301203 (antisense eG*eT*eT*e[5mC]*e[5mC]*d[5mC]*dA*dA*dA*dA*d[5mC]*dT*dG*dT*dA*eT*eA*eG*eG*eA) [compound 301203]”, the “% INHIB” value is recorded as 36%.
To “301204 (antisense eA*eG*e[5mC]*eT*e[5mC]*d[5mC]*dA*dT*dA*d[5mC]*dT*dG*dA*dA*dG*eT*e[5mC]*e[5mC]*eT*eT) [compound 301204]” belongs 37%.
With “301205 (antisense e[5mC]*eA*eA*eT*eT*d[5mC]*dA*dA*dT*dA*dA*dA*dA*dG*d[5mC]*eT*e[5mC]*e[5mC]*eA*eT) [compound 301205]” the figure was 31%.
To “301206 (antisense eG*eT*eT*eT*eT*d[5mC]*dA*dA*dA*dA*dG*dG*dT*dA*dT*eA*eA*eG*eG*eT) [compound 301206]” belongs 28%; to “301207 (antisense eT*eT*e[5mC]*e[5mC]*e[5mC]*dA*dT*dT*d[5mC]*d[5mC]*d[5mC]*dT*dG*dA*dA*eA*eG*e[5mC]*eA*eG) [compound 301207]”, 13%.
In the case of “301208 (antisense eT*eG*eG*eT*eA*dT*dT*dT*dA*d[5mC]*d[5mC]*dT*dG*dA*dG*eG*eG*e[5mC]*eT*eG) [compound 301208]”, the “% INHIB” value is 21%.
To “301209 (antisense eA*eT*eA*eA*eA*dT*dA*dA*dT*dA*dG*dT*dG*d[5mC]*dT*eG*eA*eT*eG*eG) [compound 301209]” belongs 39%.
